From patent publication US20260374773A1, “MULTI-CYCLIC IRAK AND FLT3 INHIBITING COMPOUNDS AND USES THEREOF” (CHILDREN'S HOSPITAL MEDICAL CENTER, priority 2022, published 2026)

Legend:
FLT3 Autoinh. = molecular target: T1, FLT3 Autoinh. (Homo sapiens, UniProt P36888); experiment: DiscoverX KINOMEscan active site-directed competition binding, FLT3 Autoinh.; details: no ATP
T1 sequence (P36888 27-993): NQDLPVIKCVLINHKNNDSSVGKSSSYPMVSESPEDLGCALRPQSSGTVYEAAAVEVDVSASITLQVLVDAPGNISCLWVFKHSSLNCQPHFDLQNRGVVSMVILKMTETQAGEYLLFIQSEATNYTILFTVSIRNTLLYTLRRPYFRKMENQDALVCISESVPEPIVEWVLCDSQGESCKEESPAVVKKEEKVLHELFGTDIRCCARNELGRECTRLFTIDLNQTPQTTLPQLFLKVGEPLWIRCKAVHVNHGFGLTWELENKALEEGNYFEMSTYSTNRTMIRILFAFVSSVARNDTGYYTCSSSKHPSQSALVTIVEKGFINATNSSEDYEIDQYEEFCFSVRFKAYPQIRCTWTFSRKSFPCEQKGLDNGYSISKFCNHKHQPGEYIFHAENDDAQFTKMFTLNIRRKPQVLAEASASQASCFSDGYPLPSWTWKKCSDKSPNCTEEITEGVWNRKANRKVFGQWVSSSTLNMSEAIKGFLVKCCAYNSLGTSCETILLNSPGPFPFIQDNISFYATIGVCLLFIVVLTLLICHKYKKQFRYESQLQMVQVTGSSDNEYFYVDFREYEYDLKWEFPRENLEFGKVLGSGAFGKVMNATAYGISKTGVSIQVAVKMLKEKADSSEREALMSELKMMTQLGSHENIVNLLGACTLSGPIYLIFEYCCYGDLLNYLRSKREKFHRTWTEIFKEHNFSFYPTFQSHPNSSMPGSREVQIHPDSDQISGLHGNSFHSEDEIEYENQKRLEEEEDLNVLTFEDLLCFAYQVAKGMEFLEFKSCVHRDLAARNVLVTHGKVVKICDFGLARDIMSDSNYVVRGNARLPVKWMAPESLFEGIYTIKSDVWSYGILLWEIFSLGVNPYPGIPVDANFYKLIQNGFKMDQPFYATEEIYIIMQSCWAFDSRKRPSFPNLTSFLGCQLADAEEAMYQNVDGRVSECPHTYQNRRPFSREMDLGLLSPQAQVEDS
Source text: (§1) Kinase binding data were obtained for various exemplary compounds prepared according to Examples 1-8 using the DiscoverX KINOMEscan® active site-directed competition binding site-directed assay protocol described below. […] As a result, the data report thermodynamic interaction affinities (Kd values), rather than IC50 values that are dependent on ATP concentrations. The assay uses a DNA-tagged version of the protein kinase, and an immobilized ligand bound to a solid support. Compounds that directly or indirectly prevent kinase binding to the immobilized ligand reduce the amount of kinase captured on the solid support, which is detected using an ultra-sensitive qPCR method. Affinity constants reported from the assay have been reported to be independent of the immobilized ligand used that is coupled to the solid support (See supplemental information in Fabian, M. A. et. al., (2005) Nat. Biotechnol. 23, 329-336; Wodicka, L. M. et. al., (2010) Chem. Biol. 17, 1241-1249.)
(§2) Kinase-tagged T7 phage strains were prepared in an E. coli host derived from the BL21 strain. E. coli were grown to log-phase and infected with T7 phage and incubated with shaking at 32 °C until lysis. The lysates were centrifuged and filtered to remove cell debris. The remaining kinases were produced in HEK-293 cells and subsequently tagged with DNA for qPCR detection. Streptavidin-coated magnetic beads were treated with biotinylated small molecule ligands for 30 minutes at room temperature to generate affinity resins for kinase assays. The liganded beads were blocked with excess biotin and washed with blocking buffer (SeaBlock (Pierce), 1% BSA, 0.05% Tween 20, 1 mM DTT) to remove unbound ligand and to reduce non-specific binding. […] Test compounds were prepared as 111x stocks in 100% DMSO. Kds were determined using an 11-point 3-fold compound dilution series with three DMSO control points. All compounds for Kd measurements are distributed by acoustic transfer (non-contact dispensing) in 100% DMSO. The compounds were then diluted directly into the assays such that the final concentration of DMSO was 0.9%. All reactions were performed in polypropylene 384-well plates. Each was a final volume of 0.02 mL. The assay plates were incubated at room temperature with shaking for 1 hour and the affinity beads were washed with wash buffer (1×PBS, 0.05% Tween 20). The beads were then re-suspended in elution buffer (1×PBS, 0.05% Tween 20, 0.5 μM nonbiotinylated affinity ligand) and incubated at room temperature with shaking for 30 minutes. The kinase concentration in the eluates was measured by qPCR. Binding constants (Kds) were calculated with a standard dose-response curve using the Hill equation. The Hill Slope was set to −1. Curves were fitted using a non-linear least square fit with the Levenberg-Marquardt algorithm.
as §1, with “9-12” for “1-8”
(§3) Kinase-tagged T7 phage strains were prepared in an E. coli host derived from the BL21 strain. […]

FLT3 = molecular target: T2, FLT3 (Homo sapiens, UniProt P36888); experiment: DiscoverX KINOMEscan active site-directed competition binding, FLT3; details: no ATP
T2 sequence (P36888 27-993): T1 sequence (P36888 27-993)
Source text: as §1, §2
as §1, with “9-12” for “1-8”
as §3

Row | Structure (SMILES) | Kd (FLT3 Autoinh.; Table 19) [nM] | Kd (FLT3; Table 18) [nM] | Kd (FLT3 Autoinh.; Table 13) [nM] | Kd (FLT3; Table 12) [nM]
1 | COc1cn2ncc(-c3nc(N[C@H]4CNCC[C@@H]4F)ncc3F)c2nc1C(C)(C)O [Compound 6a, 2-(3-(5-fluoro-2-(((3S,4S)-4-fluoropiperidin-3-yl)amino)pyrimidin-4-yl)-6-methoxypyrazolo[1,5-a]pyrimidin-5-yl)propan-2-ol] | 4.8 | 0.47 | – | –
2 | COc1cn2ncc(-c3nc(N[C@@H]4CCCNC4)ncc3F)c2nc1C1CC1 [Compound 14a, (R)-4-(5-cyclopropyl-6-methoxypyrazolo[1,5-a]pyrimidin-3-yl)-5-fluoro-N-(piperidin-3-yl)pyrimidin-2-amine] | 1.6 | < 0.17 | – | –
3 | COc1cn2ncc(-c3ccnc(N[C@H]4CNCC[C@@H]4F)n3)c2nc1C1CC1 [Compound 7a, 4-(5-cyclopropyl-6-methoxypyrazolo[1,5-a]pyrimidin-3-yl)-N-((3S,4S)-4-fluoropiperidin-3-yl)pyrimidin-2-amine] | 12 | < 0.17 | – | –
4 | COc1cn2ncc(-c3nc(N[C@H]4CNCC[C@@H]4F)c(C#N)cc3F)c2nc1C(C)(C)O [Compound 10, 5-fluoro-2-(((3S,4S)-4-fluoropiperidin-3-yl)amino)-6-(5-(2-hydroxypropan-2-yl)-6-methoxypyrazolo[1,5-a]pyrimidin-3-yl)nicotinonitrile] | – | – | 5.4 | 0.28
5 | COc1cn2ncc(-c3cncc(N[C@H]4CNCC[C@@H]4F)n3)c2nc1C1CC1 [Compound 12a, 6-(5-cyclopropyl-6-methoxypyrazolo[1,5-a]pyrimidin-3-yl)-N-((3S,4S)-4-fluoropiperidin-3-yl)pyrazin-2-amine] | 4.6 | < 0.17 | – | –
6 | COc1cn2ncc(-c3nc(N[C@H]4CNCC[C@@H]4F)c(F)cc3F)c2nc1C(C)(C)O [Compound 13, 2-(3-(3,5-difluoro-6-(((3S,4S)-4-fluoropiperidin-3-yl)amino)pyridin-2-yl)-6-methoxypyrazolo[1,5-a]pyrimidin-5-yl)propan-2-ol] | – | – | 3.7 | 0.61
7 | COc1cn2ncc(-c3nc(N[C@H]4CNCC[C@@H]4F)c(C#N)cc3F)c2nc1C1CC1 [Compound 7, 6-(5-cyclopropyl-6-methoxypyrazolo[1,5-a]pyrimidin-3-yl)-5-fluoro-2-(((3S,4S)-4-fluoropiperidin-3-yl)amino)nicotinonitrile] | – | – | 0.68 | < 0.17
8 | COc1cn2ncc(-c3nc(N[C@H]4CNCC[C@@H]4F)ncc3F)c2nc1C1CC1 [Compound 15a, 4-(5-cyclopropyl-6-methoxypyrazolo[1,5-a]pyrimidin-3-yl)-5-fluoro-N-((3S,4S)-4-fluoropiperidin-3-yl)pyrimidin-2-amine] | 1.4 | < 0.17 | – | –
